From patent US20090306050A1, “TREATMENT AND PREVENTION OF DEPRESSION WITH PAIN, DEPRESSION SECONDARY TO PAIN, AND OF NEUROPATHIC PAIN” (priority 2006, published 2009)

Legend:
[1] = tested on: ECG interval; conditions: rats infused with the antidepressant; cited from earlier work
[2] = tested on: neuropathic pain; conditions: in vivo; cited from earlier work
[3] = fatal poisoning/overdose, Scotland, England and Wales; cited from earlier work
[4] = tested on: severe neuropathic pain; test: Example 2: diabetic clinic patients with severe neuropathic pain; assay type: in vivo
Text: Four patients at a diabetic clinic present with severe neuropathic pain. Conventional analgesics are of no benefit.

[5] = biological target: D2 receptor (Homo sapiens, UniProt P14416); test: activity at the dopamine D2 receptor
Chain of D2 receptor (P14416 whole entry): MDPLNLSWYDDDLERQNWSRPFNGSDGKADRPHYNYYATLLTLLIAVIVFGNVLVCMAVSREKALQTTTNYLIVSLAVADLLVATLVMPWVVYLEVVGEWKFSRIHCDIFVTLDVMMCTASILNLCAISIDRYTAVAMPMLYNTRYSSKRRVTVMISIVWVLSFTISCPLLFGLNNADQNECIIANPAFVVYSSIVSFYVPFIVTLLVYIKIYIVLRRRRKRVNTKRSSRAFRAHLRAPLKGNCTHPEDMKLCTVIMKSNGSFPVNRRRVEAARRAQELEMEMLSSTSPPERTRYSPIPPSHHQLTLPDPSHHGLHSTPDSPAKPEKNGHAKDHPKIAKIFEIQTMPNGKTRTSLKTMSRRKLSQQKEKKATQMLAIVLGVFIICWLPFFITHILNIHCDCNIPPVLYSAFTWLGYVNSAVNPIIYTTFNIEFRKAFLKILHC

[6] = tested on: major depression with aches and pains; test: Example 1: patients with major depression and multiple aches and pains; assay type: in vivo; conditions: three patients, commenced 70 mg twice daily, final 140mg to 280mg daily
Experimental: Three patients who fulfilled criteria for major depression present with multiple aches and pains for which there is no obvious physical cause. […] The final dose of medication ranges from 140mg daily to 280mg daily.

[7] = tested on: NA and 5HT reuptake; test: NA versus 5HT reuptake selectivity from comparative Ki's (Bolden-Watson and Richelson); assay type: biochemical
Text: There are a number of ways in which the ratio of NA to 5HT reuptake in antidepressant molecules may be measured. The selectivity a drug for various receptors may be compared by use of comparative Ki's and not comparative IC 50 values. (Bolden-Watson, C and Richelson, E., Life Sci, (52), 1993, 1023-1029), which is hereby incorporated by reference.

[8] = tested on: serotonin synthesis; test: serotonin synthesis in the brain; conditions: in vivo
[9] = sedation; conditions: in vivo

SMILES: CN(C)CCC=C1c2ccccc2CCc2ccccc21 [amitriptyline]
- prolongation of the ECG interval [1]: prolong the ECG interval

SMILES: CC(NC(C)(C)C)C(=O)c1cccc(Cl)c1 (centres unmarked) [buproprion]
- effectiveness in neuropathic pain [2]: has not been found to be effective

SMILES: CNCCCN1c2ccccc2CCc2ccccc21 [desipramine]
- fatalities per million prescriptions [3]: 200.9 per million prescriptions
- prolongation of the ECG interval [1]: prolong the ECG interval

SMILES: CNCC[C@H](Oc1cccc2ccccc12)c1cccs1 [duloxetine]
- response of neuropathic pain to prior treatment ([4]; four diabetic patients, prescribed before lofepramine): failed to respond

SMILES: CN(C)CCCN1c2ccccc2CCc2ccccc21 [imipramine]
- prolongation of the ECG interval [1]: prolong the ECG interval

SMILES: CN(CCCN1c2ccccc2CCc2ccccc21)CC(=O)c1ccc(Cl)cc1 [lofepramine]
- activity at the D2 receptor [5]: potent activity
- improvement in symptoms including pain [6]: All three show improvement in all symptoms including pain within four weeks
- NA:5HT ratio relative to desipramine [7]: about four times that of desipramine
- NE: 5-HT ratio relative to milnacipran [7]: higher than that of milnacipran
- relief of neuropathic pain ([4]; four diabetic patients, 70 mg tds, after failure of analgesics and duloxetine): dramatic relief of pain in 3 of the 4 cases
- response after escalation of the dose ([4]; patient 4, escalated dose): results in improvement
- effect on serotonin synthesis in the brain [8]: up-regulate serotonin synthesis in the brain
- induction of sedation [9]: does not induce sedation
- fatalities per million prescriptions [3]: 1.3 per million prescriptions
- prolongation of the ECG interval [1]: does not

SMILES: COc1ccc(C(CN(C)C)C2(O)CCCCC2)cc1 (centres unmarked) [venlafaxine]
- fatalities per million prescriptions [3]: 13.2 per million prescriptions
